From PubChem BioAssay AID434987 (Southern Research Specialized Biocontainment Screening …, 2010)
The source made the active and inactive calls. No rule for the calls is given here.

Tested on: M. tuberculosis H37Rv growth inhibition with meropenem
Assay: dose response, H37Rv, with and without meropenem (AID 434987);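 also: growth over 7 days at 37 °C before Alamar Blue read on day 9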
[1] = M. tuberculosis H37Rv growth inhibition, measured here: IC50 without meropenem
[2] = M. tuberculosis H37Rv growth inhibition, measured here: IC90 without meropenem
[3] = measured here: IC90 with meropenem

CC(C)(C)c1ccc(C(=O)Oc2ccc3c(c2)OCC3=O)cc1
IC50: 8.64 µM
IC50 [1]: > 100 µM
IC90 [2]: > 100 µM
IC90 [3]: 29.4 µM

COc1cc(C(=O)NNC(=O)c2cc(-c3ccccc3)n[nH]2)cc(OC)c1C
IC50: 19.7 µM
IC50 [1]: > 100 µM
IC90 [2]: > 100 µM
IC90 [3]: > 50 µM

CCC(=O)NC(=S)Nc1ccc(NC(=O)c2ccccc2[N+](=O)[O-])cc1
IC50: > 100 µM (inactive)
IC50 [1]: > 100 µM
IC90 [2]: > 100 µM
IC90 [3]: > 100 µM

CCCCOc1ccc(C(=O)Oc2cccnc2)cc1
IC50: 19.5 µM
IC50 [1]: > 100 µM
IC90 [2]: > 100 µM
IC90 [3]: > 100 µM

COCCNC(=O)c1ccc(NC(=O)C2(c3ccccc3)CCCC2)cc1
IC50: 8.1 µM
IC50 [1]: 33.4 µM
IC90 [2]: > 100 µM
IC90 [3]: > 100 µM

Nc1nc2ccccc2n1C(=O)c1cccs1
IC50: 5.84 µM
IC50 [1]: 42.8 µM
IC90 [2]: > 100 µM
IC90 [3]: > 100 µM

O=C(CC1SC(=O)NC1=O)Oc1ccc(/C=N/NC(=O)c2ccccc2O)cc1 (stereo not given)
IC50: 6.41 µM
IC50 [1]: 41.3 µM
IC90 [2]: > 100 µM
IC90 [3]: > 100 µM

CCOC(=O)C1=C(C)N=c2s/c(=C\c3ccncc3)c(=O)n2C1c1ccc2c(c1)OCO2 (stereo not given)
IC50: 69.7 µM (inactive)
IC50 [1]: 95.7 µM
IC90 [2]: > 100 µM
IC90 [3]: > 100 µM

Cc1ccc(CN2C(=O)N/C(=C\c3ccc(-c4ccc(C(=O)O)cc4C)o3)C2=O)cc1
IC50: 5.14 µM
IC50 [1]: 23.8 µM
IC90 [2]: > 100 µM
IC90 [3]: 14.7 µM

CCCCNC(=O)c1onc(CSc2ccccc2CC)c1C(=O)O
IC50: 22.3 µM (inactive)
IC50 [1]: 44.7 µM
IC90 [2]: > 100 µM
IC90 [3]: 23.7 µM

COc1cccc(NC(=O)C2CC2)c1
IC50: 6.09 µM
IC50 [1]: > 100 µM
IC90 [2]: > 100 µM
IC90 [3]: > 100 µM

CN1CCN(c2ccccc2NC(=O)c2ccc(-c3ccc(Cl)c(Cl)c3)o2)CC1
IC50: 7.5 µM
IC50 [1]: 31.8 µM
IC90 [2]: > 100 µM
IC90 [3]: > 100 µM

CCc1cc2c(=O)oc(-c3ccccc3F)nc2s1
IC50: > 100 µM (inactive)
IC50 [1]: > 100 µM
IC90 [2]: > 100 µM
IC90 [3]: > 100 µM

O=c1oc(-c2cccs2)nc2sc3c(c12)CCCC3
IC50: 22.2 µM
IC50 [1]: > 100 µM
IC90 [2]: > 100 µM
IC90 [3]: 29.7 µM

Cc1ccccc1OCC(=O)Nc1ccccc1N1CCOCC1
IC50: 51.3 µM (inactive)
IC50 [1]: > 100 µM
IC90 [2]: > 100 µM
IC90 [3]: > 100 µM

COc1c(F)c(F)c(C(=O)Nc2c(C)cc(Br)cc2C)c(F)c1F
IC50: 4.58 µM
IC50 [1]: > 100 µM
IC90 [2]: > 100 µM
IC90 [3]: > 100 µM

CCOCC(=O)Nc1cc(C(F)(F)F)ccc1Oc1cccc(Br)c1
IC50: 56.9 µM (inactive)
IC50 [1]: > 100 µM
IC90 [2]: > 100 µM
IC90 [3]: > 100 µM

CC1=Nc2ccccc2/C1=C\c1nc(-c2ccc(F)cc2)oc1O
IC50: 3.73 µM
IC50 [1]: 93.7 µM
IC90 [2]: > 100 µM
IC90 [3]: > 100 µM

O=c1oc(-c2ccccc2F)nc2scc(-c3ccccc3)c12
IC50: 2.19 µM
IC50 [1]: > 100 µM
IC90 [2]: > 100 µM
IC90 [3]: 3.05 µM

CCOC(=O)c1c(C)oc2c1c(CN1CCN(C(=O)OCC)CC1)c(O)c1ccccc12
IC50: 51.5 µM (inactive)
IC50 [1]: 51.2 µM
IC90 [2]: > 100 µM
IC90 [3]: > 100 µM

COc1cc(NC(=O)c2ccccc2F)c(OC)cc1NC(=O)CN1CCOCC1
IC50: 29.2 µM
IC50 [1]: > 100 µM
IC90 [2]: > 100 µM
IC90 [3]: > 50 µM

O=C(Nc1nc2ccccc2[nH]1)c1ccccc1F
IC50: > 100 µM (inactive)
IC50 [1]: > 100 µM
IC90 [2]: > 100 µM
IC90 [3]: > 100 µM

Cc1ccc(-n2nnnc2Sc2nc([N+](=O)[O-])nn2C)c(C)c1
IC50: 16.5 µM
IC50 [1]: 50.4 µM
IC90 [2]: > 100 µM
IC90 [3]: > 100 µM

COc1ccc(NCC(=O)N/N=C/C(C)c2ccccc2)cc1 (stereo not given)
IC50: > 100 µM (inactive)
IC50 [1]: > 100 µM
IC90 [2]: > 100 µM
IC90 [3]: > 100 µM

CCC(C(=O)Nc1ccccc1N1CCCC1)c1ccccc1 (stereo not given)
IC50: 48.8 µM (inactive)
IC50 [1]: > 100 µM
IC90 [2]: > 100 µM
IC90 [3]: > 100 µM

Cc1c(C(=O)c2ccccc2)oc2ccc3ccccc3c12
IC50: > 100 µM (inactive)
IC50 [1]: > 100 µM
IC90 [2]: > 100 µM
IC90 [3]: > 100 µM

O=C(N/N=C/c1cccc(NC(=O)c2ccc(Cl)cc2)c1)c1cccc(O)c1
IC50: > 100 µM (inactive)
IC50 [1]: > 100 µM
IC90 [2]: > 100 µM
IC90 [3]: > 100 µM

Cc1cc(=S)nc(-c2ccccn2)[nH]1
IC50: 13.1 µM
IC50 [1]: 48.3 µM
IC90 [2]: 50.4 µM
IC90 [3]: 19.7 µM

COC(=O)/C(=C\Nc1ccc(Cl)c2ccccc12)c1ncc(C(F)(F)F)cc1Cl
IC50: 36 µM
IC50 [1]: > 100 µM
IC90 [2]: > 100 µM
IC90 [3]: > 100 µM

O=C(Nc1ccccc1Cl)c1csc(-c2cccnc2)n1
IC50: 23.9 µM
IC50 [1]: 82.3 µM
IC90 [2]: > 100 µM
IC90 [3]: > 100 µM
